Test results as given in PMC9841533, “Microtubule-Stabilizing 1,2,4-Triazolo[1,5-a]pyrimidines as Candidate Therapeutics for Neurodegenerative Disease: Matched Molecular Pair Analyses and Computational Studies Reveal New Structure–Activity Insights” (Journal of Medicinal Chemistry, 2022).
Where a name gives a salt, the structure may show the parent alone. Read-outs that look alike come from different tables or passages of the source.

Columns and labels:
[1] = system: acetylated α-tubulin (AcTub) levels in QBI293 cells; experiment: QBI293 cell assay of MT stabilization: acetylated α-tubulin ELISA; format: cell-based
Protocol: (§1) All test compounds were initially screened in the same cell-based (QBI293) assay of MT stabilization used in our previous SAR studies[11],[12] so as to allow direct comparison with literature data. Changes in levels of acetylated α-tubulin (AcTub) and total α-tubulin (α-Tub), relative to vehicle-treated negative control cells, were determined after 4 h of incubation with test compounds at 1 and 10 μM. To account for possible day-to-day differences in the responsiveness of cells to MT-stabilizing treatment, compound-dependent changes in AcTub levels relative to DMSO-treated cells were also normalized to the corresponding changes caused by 100 nM of 5 that was used as a positive control. In addition, docking studies, binding free energy calculations, and in selected cases, molecular dynamic simulations were conducted using an X-ray structure of the vinca and seventh sites (PDB: 5NJH,[10]7CLD[13]). […] For selected compounds, additional studies included testing in the QBI293 cell AcTub assay at additional compound concentrations, and/or evaluation of test compounds for their ability to prevent MT collapse in primary neuron cultures treated with the phosphatase inhibitor, okadaic […] (OA). Finally, cytotoxicity studies in QBI293 and HeLa cells were also conducted for representative examples (Supporting Information).
(§2) Compound-induced changes in acetylated-tubulin and α-tubulin in QBI293 cells or primary mouse or rat neurons were as previously described.[11],[12] […] The plated cells were incubated overnight, after which the medium was aspirated and fresh medium containing vehicle (0.25–0.3% DMSO) or test compound was added. Test compounds were prepared as 4–20 mM stock solutions in 100% DMSO, and these were diluted in culture medium prior to addition to the QBI293 cells. After 4 h incubation, whole-cell extracts were prepared from the QBI293 cells as described[11] and the supernatant fraction from each sample was assessed for protein content by bicinchoninic acid (BCA) assay. The amount of acetyl-tubulin (AcTub) and α-tubulin (αTub) within the cell extract samples was quantified using specific enzyme-linked immunosorbent assays (ELISA), as previously described.[11] Acetyl-tubulin levels were determined in a similar manner in rat or mouse cortical neuron cultures in which embryonic dissociated cortical neurons were plated at 3 × 10^5 cells/well in poly-D-lysine-coated 12-well plates, essentially as previously described.[11] […] Culture homogenates were prepared for the determination of AcTub levels by ELISA as previously described.[11]

[2] = system: total α-tubulin (α-Tub) levels in QBI293 cells; experiment: QBI293 cell assay: total α-tubulin ELISA; format: cell-based
Protocol: as §1, §2

[3] = 4 h, 1 uM compound, read-out: AcTub (1uM)
[4] = 4 h, 10 uM compound, read-out: AcTub (10 uM)
[5] = 4 h incubation, 1 μM, read-out: AcTub 1 μM, fold-change compared to vehicle (DMSO)-treated cells
[6] = 4 h incubation, 10 μM, read-out: AcTub 10 μM, fold-change compared to vehicle (DMSO)-treated cells
[7] = 4 h, 1 uM compound, read-out: AlfaTub (1uM)
[8] = 4 h, 10 uM compound, read-out: AlfaTub (10 uM)
[9] = 4 h incubation, 1 μM, read-out: α-Tub 1 μM, fold-change compared to vehicle (DMSO)-treated cells
[10] = 4 h incubation, 10 μM, read-out: α-Tub 10 μM, fold-change compared to vehicle (DMSO)-treated cells

Compound	AcTub (1 uM - normalized) ([1]; 1 uM compound)	AcTub (10 uM - normalized) ([1]; 10 uM compound)	fold induction at 1 µM [1, 3]	fold induction at 10 µM [1, 4]	AcTub 1 μM, fold-change compared to positive control compound 5 (100 nM) (in parentheses) ([1]; 4 h incubation, 1 μM)	fold induction at 1 µM [1, 5]	AcTub 10 μM, fold-change compared to positive control compound 5 (100 nM) (in parentheses) ([1]; 4 h incubation, 10 μM)	fold induction at 10 µM [1, 6]	fold induction at 1 µM [2, 7]	fold induction at 10 µM [2, 8]	total α-Tub at higher (30 μM) concentration ([2]; 4 h)	fold induction at 1 µM [2, 9]	fold induction at 10 µM [2, 10]	cellular AcTub at higher (30 μM) concentration ([1]; 4 h, 30 μM)
C[C@H](Nc1c(-c2c(F)cc(C#CCCCO)cc2F)c(Cl)nc2ncnn12)C(F)(F)F [Compound 43, (S)-5-(4-(5-Chloro-7-((1,1,1-trifluoropropan-2-yl)amino)-[1,2,4]triazolo[1,5-a]pyrimidin-6-yl)-3,5-difluorophenyl)pent-4-yn-1-ol]	2.29	1.93	17.1	14.4	2.29 fold-change	17.1 ± 0.5	1.93 fold-change	14.4 ± 0.6	0.93	0.87	reduction in total tubulin levels could be detected only at higher concentrations	0.93 ± 0.02	0.87 ± 0.03	
Fc1cc(F)c(-c2c(Cl)nc3ncnn3c2NCC2(C(F)(F)F)CC2)c(F)c1 [Compound 14, 5-Chloro-N-((1-(trifluoromethyl)cyclopropyl)methyl)-6-(2,4,6-trifluorophenyl)-[1,2,4]triazolo[1,5-a]pyrimidin-7-amine]	0.22	0.34	1.3	2	0.22 fold-change	1.3 ± 0.09	0.34 fold-change	2 ± 0.36	1	0.97		1 ± 0.04	0.97 ± 0.09	
CN(C)CCCOc1cc(F)c(-c2c(Cl)nc3ncnn3c2NCC(C)(C)C)c(F)c1 [Compound 26, 5-Chloro-6-(4-(3-(dimethylamino)propoxy)-2,6-difluorophenyl)-N-neopentyl-[1,2,4]triazolo[1,5-a]pyrimidin-7-amine]	1.12	0.1	5.98	0.52	1.12 fold-change	5.98 ± 0.11	0.10 fold-change	0.52 ± 0.07	0.67	0.73		0.69 ± 0.03	0.73 ± 0.07	
C[C@H](Nc1c(-c2c(F)cc(OCCCCO)cc2F)c(Cl)nc2ncnn12)C(F)(F)F [Compound 19, (S)-4-(4-(5-Chloro-7-((1,1,1-trifluoropropan-2-yl)amino)-[1,2,4]triazolo[1,5-a]pyrimidin-6-yl)-3,5-difluorophenoxy)butan-1-ol]	0.59	0.6	7.3	7.04	0.59 fold-change	7.3 ± 1.51	0.6 fold-change	7.04 ± 0.04	0.62	0.35		0.62 ± 0.05	0.35 ± 0.04	
C[C@@H](Nc1c(-c2c(F)cc(F)cc2F)c(Cl)nc2ncnn12)C1CC1 [Compound 17, (R)-5-Chloro-N-(1-cyclopropylethyl)-6-(2,4,6-trifluorophenyl)-[1,2,4]triazolo[1,5-a]pyrimidin-7-amine]	0.19	0.4	1.95	3.99	0.19 fold-change	1.95 ± 0.18	0.40 fold-change	3.99 ± 0.1	1.06	1.16		1.06 ± 0.07	1.16 ± 0.02	
C[C@H](Nc1c(-c2c(F)cc(C#CCCN(C)C)cc2F)c(Cl)nc2ncnn12)C(F)(F)F [Compound 44, (S)-5-Chloro-6-(4-(4-(dimethylamino)but-1-yn-1-yl)-2,6-difluorophenyl)-N-(1,1,1-trifluoropropan-2-yl)-[1,2,4]triazolo[1,5-a]pyrimidin-7-amine]	2.01	1.17	10.9	6.33	2.01 fold-change	10.9 ± 0.24	1.17 fold-change	6.33 ± 0.22	0.77	0.93		0.77 ± 0.04	0.93 ± 0.03	
C[C@H](Nc1c(-c2c(F)cc(OCCCCCO)cc2F)c(Cl)nc2ncnn12)C(F)(F)F [Compound 20, (S)-5-(4-(5-Chloro-7-((1,1,1-trifluoropropan-2-yl)amino)-[1,2,4]triazolo[1,5-a]pyrimidin-6-yl)-3,5-difluorophenoxy)pentan-1-ol]	0.50	0.96	3.73	7.12	0.50 fold-change	3.73 ± 0.22	0.96 fold-change	7.12 ± 0.29	0.37	0.28		0.43 ± 0.07	0.36 ± 0.03	
C#Cc1cc(F)c(-c2c(Cl)nc3ncnn3c2N[C@H](C)C(C)C)c(F)c1 [Compound 34, (R)-5-Chloro-6-(4-ethynyl-2,6-difluorophenyl)-N-(3-methylbutan-2-yl)-[1,2,4]triazolo[1,5-a]pyrimidin-7-amine]	0.39	0.88	3.56	8.02	0.39 fold-change	3.56 ± 0.27	0.88 fold-change	8.02 ± 0.25	0.98	1.03		0.98 ± 0.002	1.03 ± 0.008	
C[C@@H](Nc1c(-c2c(F)cc(OCCCN(C)C)cc2F)c(Cl)nc2ncnn12)C(C)(C)C [Compound 24, (R)-3-(4-(5-Chloro-7-((3,3-dimethylbutan-2-yl)amino)-[1,2,4]triazolo[1,5-a]pyrimidin-6-yl)-3,5-difluorophenoxy)-N,N-dimethylpropan-1-aminium Formate]											without a reduction of total α-Tub			further concentration-dependent decrease in cellular AcTub
C[C@@H](Nc1c(-c2c(F)cc(C#CCCN)cc2F)c(Cl)nc2ncnn12)C(C)(C)C [Compound 57, (R)-6-(4-(4-Aminobut-1-yn-1-yl)-2,6-difluorophenyl)-5-chloro-N-(3,3-dimethylbutan-2-yl)-[1,2,4]triazolo[1,5-a]pyrimidin-7-amine Hydrochloride]	0.83	1.21	2.49	3.66	0.83 fold-change	2.49 ± 0.17	1.21 fold-change	3.66 ± 0.58	0.96	0.91		0.96 ± 0.026	0.91 ± 0.12	
